Test results taken from patent US10736897B2, “Compounds and methods of use thereof for treatment of cancer” (Araxes Pharma LLC, priority 2017, dated 2020).

What follows are compounds tested against T1, KRAS G12C 1-169, his-tagged protein, GDP-loaded (Homo sapiens, UniProt P01116, G12C) (assay: Biochemical assay: covalent modification of KRAS G12C measured by mass spectrometry (RapidFire/TOF or Q-Exactive)). Conditions: Modification Activity; modification percentage from deconvoluted MS peak intensities; compound concentration and incubation time for Table 2 not stated.
T1 construct: KRAS G12C 1-169, his-tagged protein, GDP-loaded; His tag
Type: binding
Description: Test compounds are prepared as 10 mM stock solutions in DMSO (Fisher cat # BP-231-100). KRAS G12C 1-169, his-tagged protein, GDP-loaded is diluted to 2 μM or 0.5 μM in buffer (20 mM Hepes, 150 mM NaCl, 1 mM MgCl2). Compounds are tested for activity as follows:
Compounds are diluted to 50× final test concentration in DMSO in 96-well storage plates. Compound stock solutions are vortexed before use and observed carefully for any sign of precipitation. Dilutions are as follow: • For 100 μM final compound concentration, compounds are diluted to 5000 μM (5 μL 10 mM compound stock+5 μL DMSO and mixed well by pipetting. • For 30 μM final compound concentration, compounds are diluted to 1500 μM (3 μL 10 mM compound stock+17 μL DMSO) and mixed well by pipetting. • For 10 μM final compound concentration, compounds are diluted to 500 μM (2 μL 10 mM compound stock+38 μL DMSO) and mixed well by pipetting. 49 μL of the stock protein solution is added to each well of a 96-well PCR plate (Fisher cat #1423027). 1 μl of the diluted 50× compounds are added to appropriate wells in the PCR plate using 12-channel pipettor. Reactions are mixed carefully and thoroughly by pipetting up/down with a 200 μL multi-channel pipettor. The plate is sealed well with aluminum plate seal, and stored in drawer at room temperature for 10 minutes, 30 minutes, 2 hours or 24 hours. 5 μL of 2% formic acid (Fisher cat # A117) in de-ionized H2O is then added to each well followed by mixing with a pipette. The plate is then resealed with aluminum seal and stored on dry ice until analyzed as described below.
The above described assays are analyzed by mass spectrometry according to one of the following two procedures:
The MS instrument is set to positive polarity, 2 GHz resolution, and low mass (1700) mode and allowed to equilibrate for 30 minutes. The instrument is then calibrated, switched to acquisition mode and the appropriate method loaded.
After another 30 minute equilibration time, a blank batch (i.e., buffer) is run to ensure equipment is operating properly. The samples are thawed at 37° C. for 10 minutes, briefly centrifuged, and transfer to the bench top. Wells A1 and H12 are spiked with 1 μL 500 μM internal standard peptide, and the plates centrifuged at 2000×g for 5 minutes. The method is then run and masses of each individual well recorded.
The masses (for which integration data is desired) for each well are pasted into the platemap and exported from the analysis. Masses for the internal standards are exported as well. The data at 50 ppm is extracted for the +19 charge state, and identity of well A1 is assigned using the internal standard spike and integrated. Peak data is exported as a TOF list and the above steps are repeated individually, for the +20, 21, 22, 23, 24, and 25 charge states.
The masses and peak intensities of KRAS G12C protein species are measured using a Dionex RSLCnano system (Thermo Scientific) connected to a Q Exactive Plus mass spectrometer (Thermo Scientific).
[…] of sample is each loaded onto a Aeris™ 3.6 μm WIDEPORE C4 200 Å, LC Column 50×2.1 mm column maintained at 40° C. at a flow rate of 600 μL/min with […] (0.1% formic acid in acetonitrile). The liquid chromatography conditions are 20% solvent B for 1 minute, 20% to 60% solvent B for 1.5 minutes, 60% to 90% solvent for 0.5 minute, 90% solvent B for 0.2 minute, 90% to 20% solvent B for 0.2 minute, and then equilibrated for 1.6 minute before the following sample injection. The flow rate is maintained at 600 μL/min throughout the sample analysis.
The mass spectrometer is operated in profile mode at a resolution of 17500, 5 microscans, using 50 msec max injection time and an AGC target of 1×10^6, and a full mass range from 800-1850 m/z is recorded. The HCD trapping gas is optimized for maximum sensitivity for intact proteins. […]

Row | SMILES | Binding %
1 | C=CC(=O)N1CCN(c2c(C#N)cnc3c(F)c(-c4c(C)ccc5cnn(C)c45)c(Cl)cc23)C[C@H]1C [Compound 24, 4-((R)-4-acryloyl-3-methylpiperazin-1-yl)-6-chloro-7-(1,6-dimethyl-1H-indazol-7-yl)-8-fluoroquinoline-3-carbonitrile] | +++ (+++ indicates binding activity greater than 85%)
2 | C=CC(=O)N1CCN(c2cc(C(F)(F)F)nc3c(F)c(-c4c(C)ccc5[nH]nc(C)c45)c(Cl)cc23)CC1 [Compound 25, 1-(4-(6-chloro-7-(3,5-dimethyl-1H-indazol-4-yl)-8-fluoro-2-(trifluoromethyl)quino-lin-4-yl)piperazin-1-yl)prop-2-en-1-one] | + (+ indicates binding activity greater than 0% and up to 50%)
3 | C=CC(=O)N1CCN(c2c(C#N)cnc3c(F)c(-c4c(C)ccc5cnn(C6CC6)c45)c(Cl)cc23)C[C@H]1C [Compound 26, 4-((R)-4-acryloyl-3-methylpiperazin-1-yl)-6-chloro-7-(1-cyclopropyl-6-methyl-1H-indazol-7-yl)-8-fluoroquinoline-3-carbonitrile] | +++ (+++ indicates binding activity greater than 85%)
4 | C=CC(=O)N1CCN(c2c(C#N)c(OCCCN(C)C)nc3c(F)c(-c4c(C)ccc5cnn(C)c45)c(Cl)cc23)CC1 [Compound 27, 4-(4-acryloylpiperazin-1-yl)-6-chloro-7-(1,6-dimethyl-1H-indazol-7-yl)-2-(3-(dimethylamino)pro-poxy)-8-fluoroquinoline-3-carbonitrile] | +++ (+++ indicates binding activity greater than 85%)
5 | C=CC(=O)N1CCN(c2cc(C#N)nc3c(F)c(-c4c(C)ccc5cnn(C)c45)c(Cl)cc23)CC1 [Compound 28, 4-(4-acryloylpiperazin-1-yl)-6-chloro-7-(1,6-dimethyl-1H-indazol-7-yl)-8-fluoroquinoline-2-carbonitrile] | +++ (+++ indicates binding activity greater than 85%)
6 | C=CC(=O)N1CCN(c2cc(C#N)nc3c(F)c(-c4c(C)ccc5[nH]nc(C)c45)c(Cl)cc23)CC1 [Compound 29, 4-(4-acryloylpiperazin-1-yl)-6-chloro-7-(3,5-dimethyl-1H-indazol-4-yl)-8-fluoroquinoline-2-carbontrile] | ++ (++ indicates binding activity from 50 to 85%)
7 | C=CC(=O)N1CCN(c2c(C#N)cnc3c(F)c(-c4c(C)ccc5[nH]nc(C)c45)c(Cl)cc23)CC1CC#N (centres unmarked) [Compound 30, 4-(4-acryloyl-3-(cyanomethyl)piperazin-1-yl)-6-chloro-7-(3,5-dimethyl-1H-indazol-4-yl)-8-fluoroquinoline-3-carbonitrile] | +++ (+++ indicates binding activity greater than 85%)
8 | C=CC(=O)N1CCN(c2ncnc3c(F)c(-c4c(C)ccc5[nH]nc(C)c45)c(Cl)cc23)CC1CC#N (centres unmarked) [Compound 31, 2-(1-acryloyl-4-(6-chloro-7-(3,5-dimethyl-1H-indazol-4-yl)-8-fluoroquinazolin-4-yl)piperazin-2-yl)acetonitrile] | +++ (+++ indicates binding activity greater than 85%)
